Article PMC8035258 (ChemMedChem, 2021)
Like-named read-outs stand apart in the source and are kept apart here.

Experiments:
[1] = target: Mitochondrial respiratory complex II (Mus musculus, UniProt Q8K2B3+Q9CQA3+Q9CXV1+Q9CZB0); experiment: Complex II inhibition assay; format: biochemical; conditions: mouse liver mitochondria, mean ±SD of n = 4; for inhibition at 100 µM: read-out: % Inhibition CII (100 μM), 100 μM
[2] = system: low tumorigenic human endothelial kidney (HEK293) cells; experiment: MTS cytotoxicity assay in HEK293 cells; format: cell-based; conditions: read-out: HEK293 IC50
TNBC MDA-MB-468 cells = experiment: MTS cytotoxicity assay in MDA-MB-468 cells; format: cell-based; conditions: for SI (Selectivity Index): MDA-MB-468 over HEK293 cells; for IC50: read-out: MDA-MB-468 IC50, 72 hours, mean ±SD of n=3

Chain of Mitochondrial respiratory complex II (Q8K2B3 43-664): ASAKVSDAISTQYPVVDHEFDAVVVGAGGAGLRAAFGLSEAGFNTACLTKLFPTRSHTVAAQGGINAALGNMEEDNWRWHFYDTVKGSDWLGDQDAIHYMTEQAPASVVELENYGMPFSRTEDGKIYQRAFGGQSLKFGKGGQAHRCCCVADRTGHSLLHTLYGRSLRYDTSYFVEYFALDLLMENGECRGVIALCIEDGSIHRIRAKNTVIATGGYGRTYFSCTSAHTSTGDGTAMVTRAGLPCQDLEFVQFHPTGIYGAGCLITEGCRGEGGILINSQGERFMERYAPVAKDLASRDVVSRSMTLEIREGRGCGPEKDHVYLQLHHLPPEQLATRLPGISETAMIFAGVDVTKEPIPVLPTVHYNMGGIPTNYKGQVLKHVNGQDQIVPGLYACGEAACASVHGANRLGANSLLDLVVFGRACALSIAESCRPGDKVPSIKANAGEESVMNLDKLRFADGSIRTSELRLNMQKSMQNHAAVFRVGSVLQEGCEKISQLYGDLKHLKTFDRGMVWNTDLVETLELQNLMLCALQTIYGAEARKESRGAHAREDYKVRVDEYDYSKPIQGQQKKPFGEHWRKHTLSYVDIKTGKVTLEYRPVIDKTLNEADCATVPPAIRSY
Chain of Mitochondrial respiratory complex II (Q9CQA3 31-282): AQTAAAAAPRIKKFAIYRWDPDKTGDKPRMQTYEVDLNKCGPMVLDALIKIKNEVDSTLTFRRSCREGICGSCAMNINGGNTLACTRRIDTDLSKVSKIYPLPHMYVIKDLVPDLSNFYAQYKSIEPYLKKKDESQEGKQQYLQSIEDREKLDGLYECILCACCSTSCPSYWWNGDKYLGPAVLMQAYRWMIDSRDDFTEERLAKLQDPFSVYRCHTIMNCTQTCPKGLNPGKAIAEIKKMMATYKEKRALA
Chain of Mitochondrial respiratory complex II (Q9CZB0 30-169): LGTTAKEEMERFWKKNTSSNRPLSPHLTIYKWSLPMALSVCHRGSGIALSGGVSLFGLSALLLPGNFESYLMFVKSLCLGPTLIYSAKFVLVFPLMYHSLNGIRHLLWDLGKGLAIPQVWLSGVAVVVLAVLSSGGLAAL
Chain of Mitochondrial respiratory complex II (Q9CXV1 57-159): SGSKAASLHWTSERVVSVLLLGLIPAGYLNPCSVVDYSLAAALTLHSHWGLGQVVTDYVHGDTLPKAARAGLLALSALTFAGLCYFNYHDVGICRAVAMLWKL

Structure (SMILES)	inhibition at 100 µM [1] [%]	IC50 ([2]; Homo sapiens, HEK293, 72 h) [µM]	SI (Selectivity Index) (TNBC MDA-MB-468 cells)	also measured
O=S1(=O)N=C(NCCCc2ccccc2)Nc2ccc(F)cc21 [Compound 23a, 7-Fluoro-3-((3-phenylpropyl)amino)-4H-benzo[e][1,2,4]thiadiazine 1,1-dioxide]	14 ± 10.4	181 ± 7.3	3.12	
COc1ccccc1CNC1=NS(=O)(=O)c2cc(Br)ccc2N1 [Compound 26c, 7-Bromo-3-((2-methoxybenzyl)amino)-4H-benzo[e][1,2,4]thiadiazine 1,1-dioxide]	44 ± 12.3	54.4 ± 4.2	4	
O=S1(=O)N=C(NCCc2ccc(F)cc2)Nc2ccc(Br)cc21 [Compound 33c, 7-Bromo-3-((4-fluorophenethyl)amino)-4H-benzo[e][1,2,4]thiadiazine 1,1-dioxide]	45 ± 17.1	48.7 ± 12	2.42	
CC(C)C(C)NC1=NS(=O)(=O)c2cc(Br)ccc2N1 (stereo not shown) [Compound 15c, 7-Bromo-3-((3-methylbutan-2-yl)amino)-4Hbenzo[e][1,2,4]thiadiazine 1,1-dioxide]	19 ± 10.4	35.7 ± 1.6	1.75	
O=S1(=O)N=C(NCCc2ccccc2)Nc2ccc(Br)cc21 [Compound 18c, 7-Bromo-3-(phenethylamino)-4H-benzo[e][1,2,4]thiadiazine 1,1-dioxide]	37 ± 4.7	63.1 ± 1.8	3.4	
COc1ccc(CCNC2=NS(=O)(=O)c3cc(F)ccc3N2)cc1 [Compound 39a, 7-Fluoro-3-((4-methoxyphenethyl)amino)-4H-benzo[e][1,2,4]thiadiazine 1,1-dioxide]	18 ± 6.2	123 ± 21.4	3.27	
O=S1(=O)N=C(NCc2ccc(C(F)(F)F)cc2)Nc2cc(Cl)ccc21 [Compound 25b, 6-Chloro-3-((4-(trifluoromethyl)benzyl)amino)-4Hbenzo[e][1,2,4]thia-d iazine 1,1-dioxide]				% Inhibition CII (100 μM) [1]: 19 ±10.1%; IC50 (TNBC MDA-MB-468 cells): 25.1 ± 3.8 µM
O=c1[nH]cc(F)c(=O)[nH]1 [5-Fluorouracil, reference compound]		7.06 ± 0.8	1.03	SI (Selectivity Index) (TNBC MDA-MB-468 cells; listed as 5-fluorouracil): 1
O=S1(=O)N=C(NCc2ccc(Cl)cc2)Nc2ccc(Br)cc21 [Compound 16c, 7-Bromo-3-((4-chlorobenzyl)amino)-4H-benzo[e][1,2,4]thiadiazine 1,1-dioxide dioxide]				% Inhibition CII (100 μM) [1]: 45 ±5.6%; IC50 ([2]; 72 hours, mean ±SD of n=3): 43.1 ± 3.2 µM; IC50 (TNBC MDA-MB-468 cells): 12.5 ± 0.3 µM
CSC1=NS(=O)(=O)c2cc(Br)ccc2N1 [Compound 13c, 7-Bromo-3-methylsulfanyl-4H-1,2,4-benzothiadiazine 1,1-dioxide]	10 ± 2.7			
CCNC1=NS(=O)(=O)c2ccc(Cl)cc2N1 [Compound 19b, 6-Chloro-3-(ethylamino)-4H-benzo[e][1,2,4]thiadiazine 1,1-dioxide]	0			
CCNC1=NS(=O)(=O)c2cc(Br)ccc2N1 [Compound 19c, 7-Bromo-3-(ethylamino)-4H-benzo[e][1,2,4]thiadiazine 1,1-dioxide]	11 ± 6.9			
CC(C)C(C)NC1=NS(=O)(=O)c2cc(F)ccc2N1 (stereo not shown) [Compound 15a, 7-Fluoro-3-((3-methylbutan-2-yl)amino)-4H-benzo[e][1,2,4]thiadiazine 1,1-dioxide]	5 ± 4.5			
CSC1=NS(=O)(=O)c2ccccc2N1 [Compound 13d, 3-(Methylthio)-4H-benzo[e][1,2,4]thiadiazine 1,1-dioxide]	4 ± 5.5			
O=S1(=O)N=C(NCCc2c[nH]c3ccccc23)Nc2cc(Cl)ccc21 [Compound 36b, 3-((2-(1H-indol-3-yl)ethyl)amino)-6-chloro-4H-benzo[e][1,2,4]thiadiazine 1,1-dioxide]	25 ± 19	41.3 ± 5.2	2.66	
COc1ccccc1CNC1=NS(=O)(=O)c2cc(F)ccc2N1 [Compound 26a, 7-Fluoro-3-((2-methoxybenzyl)amino)-4H-benzo[e][1,2,4]thiadiazine 1,1-dioxide]	27 ± 5.6	47.6 ± 2	3.03	
